According to patent US8114880B2, “Piperidine or piperazine substituted tetrahydro-naphthalene-1-carboxylic acid MTP inhibiting compounds” (Janssen Pharmaceutica N.V., priority 2006, dated 2012):

Test system: HepG2 cells
Experiment: Quantification of the secretion of ApoB
Format: cell-based
Details: 24 hours of incubation, pIC50 = -log IC50, listed as 46
Method: HepG2 cells were cultured in 24-well plates in MEM Rega 3 containing 10% fetal calf serum. At 70% confluency, the medium was changed and the test compound or carrier (DMSO, 0.4% final concentration) was added. After 24 hours of incubation, the medium was transferred to Eppendorf tubes and cleared by centrifugation. A sheep antibody directed against either apoB was added to the supernatant and the mixture was kept at 8° C. for 24 hours. Then, rabbit anti-sheep antibody was added and the immune complex was allowed to precipitate for 24 hours at 8° C. The immunoprecipitate was pelleted by centrifugation for 25 minutes at 1320 g and washed twice with a buffer containing 40 mM Mops, 40 mM NaH2PO4, 100 mM NaF, 0.2 mM DTT, 5 mM EDTA, 5 mM EGTA, 1% Triton-X-100, 0.5% sodium deoxycholate (DOC), 0.1% SDS, 0.2 μM leupeptin and 0.2 μM PMSF. Radioactivity in the pellet was quantified by liquid scintillation counting. The IC50 values are usually converted to pIC50 values (=−log IC50 value) for ease of use.

SMILES	pIC50
C=CCOC(=O)[C@]1(c2ccccc2)CC[C@@H](C(=O)N2CCC(NC(=O)c3ccccc3OC)CC2)c2ccccc21 [Co. No. 46]	6.649

Same assay, conditions: Homo sapiens, HepG2, 24 h, 24 hours of incubation, pIC50 = -log IC50

SMILES	IC50
CCNC(=O)[C@]1(c2ccccc2)CC[C@@H](C(=O)N2CCC(NC(=O)c3ccccc3OC)CC2)c2ccccc21 (racemic) [Co. No. 7]	2.28 nM
CCOC(=O)[C@]1(c2ccccc2)CC[C@@H](C(=O)N2CCC(NC(=O)c3ccccc3OC)CC2)c2ccccc21 (racemic) [Co. No. 26]	6.37 nM
CCOC(=O)[C@@]1(c2ccccc2)CC[C@H](C(=O)N2CCC(NC(=O)c3ccccc3)CC2)c2ccccc21 (single isomer, unassigned) [Co. No. 32]	7.52 nM
CCNC(=O)[C@@]1(c2ccccc2)CC[C@H](C(=O)N2CCC(NC(=O)c3ccccc3OC)CC2)c2ccccc21 (single isomer, unassigned) [Co. No. 39]	3.13 nM
COc1ccccc1C(=O)NC1CCN(C(=O)[C@@H]2CC[C@@](C(N)=O)(c3ccccc3)c3ccccc32)CC1 (single isomer, unassigned) [Co. No. 41]	35.8 nM
O=C(NC1CCN(CC2CCC(C(=O)NCc3ccccc3)(c3ccccc3)c3ccccc32)CC1)c1ccccc1 (stereo not shown) [Co. No. 1]	1840 nM
O=C(NC1CCN(C(=O)C2CCC(C(=O)Nc3ccccc3)(c3ccccc3)c3ccccc32)CC1)c1ccccc1 (stereo not shown) [Co. No. 2]	74.5 nM
CCCNC(=O)C1(c2ccccc2)CCC(CN2CCC(NC(=O)c3ccccc3)CC2)c2ccccc21 (stereo not shown) [Co. No. 5]	1910 nM
C=CCOC(=O)[C@@]1(c2ccccc2)CC[C@H](C(=O)N2CCC(NC(=O)c3ccccc3OC)CC2)c2ccccc21 [Co. No. 45]	2.63 nM

Target: MTP (Homo sapiens, UniProt P55157)
Experiment: MTP assay (triglyceride transfer from donor to acceptor vesicles)
Format: biochemical
Details: MTP activity, percent triglyceride transfer from donor to acceptor vesicles, 37° C.
Method: MTP activity was measured using an assay similar to one described by J. R. Wetterau and D. B. Zilversmit in Chemistry and Physics of Lipids, 38, 205-222 (1985). To prepare the donor and acceptor vesicles, the appropriate lipids in chloroform were put into a glass test tube and dried under a stream of nitrogen. A buffer containing 15 mM Tris-HCl pH 7.5, 1 mM EDTA, 40 mM NaCl, 0.02% NaN3 (assay buffer) was added to the dried lipid. The mixture was vortexed briefly and the lipids were then allowed to hydrate for 20 minutes on ice. Vesicles were then prepared by bath sonication (Branson 2200) at room temperature for maximum 15 minutes. Butylated hydroxytoluene was included in all vesicle preparations at a concentration of 0.1%. The lipid transfer assay mixture contained donor vesicles (40 nmol phosphatidylcholine, 7.5 mol % of cardiolipin and 0.25 mol % glycerol tri [1-^14C]-oleate), acceptor vesicles (240 nmol phosphatidylcholine) and 5 mg BSA in a total volume of 675 μl in a 1.5 ml microcentrifuge tube. Test compounds were added dissolved in DMSO (0.13% final concentration). After 5 minutes of pre-incubation at 37° C., the reaction was started by the addition of MTP in 100 μl dialysis buffer. The reaction was stopped by the addition of 400 μl DEAE-52 cellulose pre-equilibrated in 15 mM Tris-HCl pH 7.5, 1 mM EDTA, 0.02% NaN3 (1:1, vol/vol). The mixture was agitated for 4 minutes and centrifuged for 2 minutes at maximum speed in an Eppendorf centrifuge (4° C.) to pellet the DEAE-52-bound donor vesicles. An aliquot of the supernatant containing the acceptor liposomes was counted and the [^14C]-counts were used to calculate the percent triglyceride transfer from donor to acceptor vesicles.

Sequence of MTP (P55157 19-894, species assumed): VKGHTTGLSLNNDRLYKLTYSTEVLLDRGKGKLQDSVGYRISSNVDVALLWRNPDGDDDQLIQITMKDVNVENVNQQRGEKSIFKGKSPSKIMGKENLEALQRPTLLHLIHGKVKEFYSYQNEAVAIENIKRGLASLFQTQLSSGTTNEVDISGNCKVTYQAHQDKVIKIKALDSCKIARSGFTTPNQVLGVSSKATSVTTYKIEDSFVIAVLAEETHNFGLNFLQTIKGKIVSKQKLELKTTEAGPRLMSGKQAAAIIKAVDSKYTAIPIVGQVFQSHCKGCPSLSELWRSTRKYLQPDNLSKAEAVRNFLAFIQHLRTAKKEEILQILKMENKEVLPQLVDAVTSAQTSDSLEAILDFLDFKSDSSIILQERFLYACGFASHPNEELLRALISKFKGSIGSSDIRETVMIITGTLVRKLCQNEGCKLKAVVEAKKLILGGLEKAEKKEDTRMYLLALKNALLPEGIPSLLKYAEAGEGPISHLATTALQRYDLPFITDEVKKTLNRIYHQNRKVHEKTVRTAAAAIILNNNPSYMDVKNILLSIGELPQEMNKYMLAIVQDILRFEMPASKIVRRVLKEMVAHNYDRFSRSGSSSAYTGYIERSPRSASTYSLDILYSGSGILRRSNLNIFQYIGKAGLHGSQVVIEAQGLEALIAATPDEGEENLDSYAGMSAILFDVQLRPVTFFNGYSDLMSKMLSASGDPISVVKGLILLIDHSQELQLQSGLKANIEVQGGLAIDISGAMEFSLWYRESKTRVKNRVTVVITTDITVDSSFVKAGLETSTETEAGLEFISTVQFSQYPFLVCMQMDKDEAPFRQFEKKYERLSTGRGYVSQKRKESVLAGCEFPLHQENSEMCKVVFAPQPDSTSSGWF
Sequence of MTP (P07237 18-508 partner, species assumed): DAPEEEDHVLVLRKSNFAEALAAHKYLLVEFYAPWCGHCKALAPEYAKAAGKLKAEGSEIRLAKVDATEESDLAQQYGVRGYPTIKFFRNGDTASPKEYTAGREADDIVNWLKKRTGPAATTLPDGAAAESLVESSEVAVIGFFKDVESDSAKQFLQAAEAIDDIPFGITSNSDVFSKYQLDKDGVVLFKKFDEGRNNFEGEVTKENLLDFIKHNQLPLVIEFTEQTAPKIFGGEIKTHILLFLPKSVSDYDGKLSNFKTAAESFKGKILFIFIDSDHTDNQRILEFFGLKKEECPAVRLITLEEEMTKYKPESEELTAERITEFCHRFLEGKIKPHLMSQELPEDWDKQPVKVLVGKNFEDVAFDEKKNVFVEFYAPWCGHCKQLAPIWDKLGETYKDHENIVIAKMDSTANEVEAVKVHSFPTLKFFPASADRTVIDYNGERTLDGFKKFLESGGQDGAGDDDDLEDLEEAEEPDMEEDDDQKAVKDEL

IC50	SMILES
> 10000 nM	Cn1cccc(C(=O)NC2CCN(C(=O)[C@H]3CC[C@@](C(=O)N[C@@H](Cc4ccccc4)C(=O)O)(c4ccccc4)c4ccccc43)CC2)c1=O [Co. No. 195]
> 10000 nM	Cn1cccc(C(=O)NC2CCN(C(=O)[C@H]3CC[C@@](C(=O)N[C@H](Cc4ccccc4)C(=O)O)(c4ccccc4)c4ccccc43)CC2)c1=O [Co. No. 196]
> 10000 nM	Cn1cccc(C(=O)NC2CCN(C(=O)[C@H]3CC[C@@](C(=O)N[C@@H](Cc4ccc(O)cc4)C(=O)O)(c4ccccc4)c4ccccc43)CC2)c1=O [Co. No. 197]
> 10000 nM	Cn1cccc(C(=O)NC2CCN(C(=O)[C@H]3CC[C@@](C(=O)N[C@@H](CC(N)=O)C(=O)O)(c4ccccc4)c4ccccc43)CC2)c1=O [Co. No. 198]
1140 nM	COC(=O)CCCNC(=O)[C@@]1(c2ccccc2)CC[C@H](C(=O)N2CCC(NC(=O)c3cccn(C)c3=O)CC2)c2ccccc21 [Co. No. 224]
228 nM	CC(C)OC(=O)CCCCNC(=O)[C@@]1(c2ccccc2)CC[C@H](C(=O)N2CCC(NC(=O)c3cccn(C)c3=O)CC2)c2ccccc21 [Co. No. 227]
307 nM	COC(=O)CCCCCNC(=O)[C@@]1(c2ccccc2)CC[C@H](C(=O)N2CCC(NC(=O)c3cccn(C)c3=O)CC2)c2ccccc21 [Co. No. 228]
170 nM	Cn1cccc(C(=O)NC2CCN(C(=O)[C@H]3CC[C@@](C(=O)NCCCCCC(=O)OC(C)(C)C)(c4ccccc4)c4ccccc43)CC2)c1=O [Co. No. 230]
3330 nM	CCOC(=O)NCCCC[C@H](CC(=O)[C@@]1(c2ccccc2)CC[C@H](C(=O)N2CCC(NC(=O)c3cccn(C)c3=O)CC2)c2ccccc21)C(=O)OCC [Co. No. 232]
> 10000 nM	CCOC(=O)[C@H](CCCCNC(=O)OC(C)C)NC(=O)[C@@]1(c2ccccc2)CC[C@H](C(=O)N2CCC(NC(=O)c3cccn(C)c3=O)CC2)c2ccccc21 [Co. No. 234]
2670 nM	COC(=O)[C@H](CCCCNC(=O)[C@@]1(c2ccccc2)CC[C@H](C(=O)N2CCC(NC(=O)c3cccn(C)c3=O)CC2)c2ccccc21)NC(C)=O [Co. No. 236]
234 nM	COC(=O)[C@@H](CCCCNC(=O)OC(C)(C)C)NC(=O)[C@@]1(c2ccccc2)CC[C@H](C(=O)N2CCC(NC(=O)c3cccn(C)c3=O)CC2)c2ccccc21 [Co. No. 237]
2330 nM	CCOC(=O)NCCCC[C@@H](NC(=O)[C@@]1(c2ccccc2)CC[C@H](C(=O)N2CCC(NC(=O)c3cccn(C)c3=O)CC2)c2ccccc21)C(=O)OC [Co. No. 238]
643 nM	CCOC(=O)NCCCC[C@@H](NC(=O)[C@@]1(c2ccccc2)CC[C@H](C(=O)N2CCC(NC(=O)c3cccn(C)c3=O)CC2)c2ccccc21)C(=O)OCC [Co. No. 239]
286 nM	COC(=O)[C@@H](CCCCNC(=O)OC(C)C)NC(=O)[C@@]1(c2ccccc2)CC[C@H](C(=O)N2CCC(NC(=O)c3cccn(C)c3=O)CC2)c2ccccc21 [Co. No. 240]
243 nM	CCOC(=O)[C@@H](CCCCNC(=O)OC(C)C)NC(=O)[C@@]1(c2ccccc2)CC[C@H](C(=O)N2CCC(NC(=O)c3cccn(C)c3=O)CC2)c2ccccc21 [Co. No. 241]
2360 nM	CC(C)OC(=O)NCCCC[C@@H](NC(=O)[C@@]1(c2ccccc2)CC[C@H](C(=O)N2CCC(NC(=O)c3cccn(C)c3=O)CC2)c2ccccc21)C(=O)OC(C)C [Co. No. 242]
63.1 nM	CCOC(=O)[C@]1(c2ccccc2)CC[C@@H](C(=O)N2CCN(CC(=O)c3ccccc3OC)CC2)c2ccccc21 [Co. No. 259]
14.5 nM	CCOC(=O)[C@]1(c2ccccc2)CC[C@@H](C(=O)N2CCC(NC(=O)c3ccccc3N3CCN(C)CC3)CC2)c2ccccc21 [Co. No. 268]
8.45 nM	C=CCOC(=O)[C@@]1(c2ccccc2)CC[C@H](C(=O)N2CCC(NC(=O)c3ccccc3N3CCN(C)CC3)CC2)c2ccccc21 [Co. No. 269]
14.1 nM	CCOC(=O)[C@]1(c2ccccc2)CC[C@@H](C(=O)N2CCC(N(C)C(=O)c3ccccc3OC)CC2)c2ccccc21 [Co. No. 270]
2.94 nM	CCOC(=O)[C@]1(c2cccc(F)c2)CC[C@@H](C(=O)N2CCC(NC(=O)c3ccccc3OC)CC2)c2cc(F)ccc21 [Co. No. 271]

Continued, compound first:

SMILES	IC50
CCNC(=O)[C@]1(c2ccccc2)CC[C@@H](C(=O)N2CCC(NC(=O)c3ccccc3OC)CC2)c2ccccc21 (racemic) [Co. No. 7]	6.47 nM
CCOC(=O)[C@]1(c2ccccc2)CC[C@@H](C(=O)N2CCC(NC(=O)c3ccccc3OC)CC2)c2ccccc21 (racemic) [Co. No. 26]	1.92 nM
CCOC(=O)[C@@]1(c2ccccc2)CC[C@H](C(=O)N2CCC(NC(=O)c3ccccc3)CC2)c2ccccc21 (single isomer, unassigned) [Co. No. 32]	1.9 nM
CCNC(=O)[C@@]1(c2ccccc2)CC[C@H](C(=O)N2CCC(NC(=O)c3ccccc3OC)CC2)c2ccccc21 (single isomer, unassigned) [Co. No. 39]	3 nM
COc1ccccc1C(=O)NC1CCN(C(=O)[C@@H]2CC[C@@](C(N)=O)(c3ccccc3)c3ccccc32)CC1 (single isomer, unassigned) [Co. No. 41]	> 10000 nM
C[C@H](NC(=O)[C@@]1(c2ccccc2)CC[C@H](C(=O)N2CCC(NC(=O)c3cccn(C)c3=O)CC2)c2ccccc21)C(=O)O [Co. No. 183]	> 10000 nM
C[C@@H](NC(=O)[C@@]1(c2ccccc2)CC[C@H](C(=O)N2CCC(NC(=O)c3cccn(C)c3=O)CC2)c2ccccc21)C(=O)O [Co. No. 184]	> 10000 nM
CN(CC(=O)O)C(=O)[C@@]1(c2ccccc2)CC[C@H](C(=O)N2CCC(NC(=O)c3cccn(C)c3=O)CC2)c2ccccc21 [Co. No. 185]	> 10000 nM
Cn1cccc(C(=O)NC2CCN(C(=O)[C@H]3CC[C@@](C(=O)NCCC(=O)O)(c4ccccc4)c4ccccc43)CC2)c1=O [Co. No. 186]	> 10000 nM
CC(C)[C@H](NC(=O)[C@@]1(c2ccccc2)CC[C@H](C(=O)N2CCC(NC(=O)c3cccn(C)c3=O)CC2)c2ccccc21)C(=O)O [Co. No. 187]	> 10000 nM
CC(C)[C@@H](NC(=O)[C@@]1(c2ccccc2)CC[C@H](C(=O)N2CCC(NC(=O)c3cccn(C)c3=O)CC2)c2ccccc21)C(=O)O [Co. No. 188]	> 10000 nM
CC(C)C[C@H](NC(=O)[C@@]1(c2ccccc2)CC[C@H](C(=O)N2CCC(NC(=O)c3cccn(C)c3=O)CC2)c2ccccc21)C(=O)O [Co. No. 189]	> 10000 nM
Cn1cccc(C(=O)NC2CCN(C(=O)[C@H]3CC[C@@](C(=O)NC(CCCCN)C(=O)O)(c4ccccc4)c4ccccc43)CC2)c1=O (stereo partly shown) [Co. No. 190]	> 10000 nM
Cn1cccc(C(=O)NC2CCN(C(=O)[C@H]3CC[C@@](C(=O)N4CCC[C@@H]4C(=O)O)(c4ccccc4)c4ccccc43)CC2)c1=O [Co. No. 191]	> 10000 nM
Cn1cccc(C(=O)NC2CCN(C(=O)[C@H]3CC[C@@](C(=O)N4C[C@H](O)C[C@H]4C(=O)O)(c4ccccc4)c4ccccc43)CC2)c1=O [Co. No. 192]	> 10000 nM
Cn1cccc(C(=O)NC2CCN(C(=O)[C@H]3CC[C@@](C(=O)N[C@@H](C(=O)O)c4ccccc4)(c4ccccc4)c4ccccc43)CC2)c1=O [Co. No. 193]	> 10000 nM
Cn1cccc(C(=O)NC2CCN(C(=O)[C@H]3CC[C@@](C(=O)N[C@H](C(=O)O)c4ccccc4)(c4ccccc4)c4ccccc43)CC2)c1=O [Co. No. 194]	> 10000 nM
